Where two headings read alike, the source gives them in different places.
Target: catalytic domain (Met80-Gly242) of human neutrophil collagenase (Homo sapiens, UniProt P22894)
Assay type: biochemical
Conditions: towards HNC, 8 nM enzyme, 10 µM DNP-Pro-Leu-Gly-Leu-Trp-Ala-D-Arg-NH2, 50 mM Tris/HCl pH 7.6, 25°C

Sequence of catalytic domain (Met80-Gly242) of human neutrophil collagenase (P22894 100-262): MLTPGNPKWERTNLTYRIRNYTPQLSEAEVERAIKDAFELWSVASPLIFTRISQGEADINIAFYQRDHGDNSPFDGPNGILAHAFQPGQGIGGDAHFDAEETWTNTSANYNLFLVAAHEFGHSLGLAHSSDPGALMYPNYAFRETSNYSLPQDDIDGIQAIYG

| IC50 (read-out: IC50) | Structure (SMILES) | IC50 |
| --- | --- | --- |
| 560 nM | O=C(NO)C(CCc1ccccc1)C(=O)NCCCc1ccccc1 (racemic) [Example 3, (±)-HONH-Mal(CH2CH2-C6H5)-NH-(CH2)3-C6H5] | – |
| 300 nM | CCCCCCCCNC(=O)C(CC(C)C)C(=O)NO (racemic) [Example 2, (±)-HONH-Mal(iBu)-NH-(CH2)7-CH3] | – |
| 640 nM | O=C(NO)C(Cc1ccccc1)C(=O)NCCCc1ccccc1 (racemic) [Example 4, (±)-HONH-Mal(Bn)-NH-(CH2)3-C6H5] | – |
| – | CC(C)CC(C(=O)NO)C(=O)NCCCc1ccccc1 (racemic) [Example 1, (±)-HONH-Mal(iBu)-NH-(CH2)3-C6H5] | 620 nM |

— patent EP0911319A1, “Malonic acid based matrix metalloproteinase inhibitors” (Roche Diagnostics GmbH, priority 1997, dated 1999)
